Columns and labels:
Type in all cases: biochemical
EP3 receptor = target: T1, EP3 receptor (Homo sapiens, UniProt P43115); assay: PG receptor antagonism, EP3; set-up: unit not given here; settings: antagonist activity at EP3 receptor
T1 sequence (P43115 1-390): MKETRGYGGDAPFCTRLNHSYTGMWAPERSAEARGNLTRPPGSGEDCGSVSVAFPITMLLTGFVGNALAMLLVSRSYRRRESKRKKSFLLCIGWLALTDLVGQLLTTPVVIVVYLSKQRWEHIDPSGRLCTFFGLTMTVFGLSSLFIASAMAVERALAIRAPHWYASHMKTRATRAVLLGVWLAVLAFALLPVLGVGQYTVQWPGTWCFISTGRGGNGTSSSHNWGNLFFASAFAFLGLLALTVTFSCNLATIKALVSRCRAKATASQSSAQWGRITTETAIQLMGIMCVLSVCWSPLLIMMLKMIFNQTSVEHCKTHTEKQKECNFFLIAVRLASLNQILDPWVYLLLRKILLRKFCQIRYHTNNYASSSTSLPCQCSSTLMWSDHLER

TP receptor = target: T2, TP receptor (Homo sapiens, UniProt P21731); assay: PG receptor antagonism, TP; set-up: unit not given here; settings: antagonist activity at TP receptor
T2 sequence (P21731 1-343): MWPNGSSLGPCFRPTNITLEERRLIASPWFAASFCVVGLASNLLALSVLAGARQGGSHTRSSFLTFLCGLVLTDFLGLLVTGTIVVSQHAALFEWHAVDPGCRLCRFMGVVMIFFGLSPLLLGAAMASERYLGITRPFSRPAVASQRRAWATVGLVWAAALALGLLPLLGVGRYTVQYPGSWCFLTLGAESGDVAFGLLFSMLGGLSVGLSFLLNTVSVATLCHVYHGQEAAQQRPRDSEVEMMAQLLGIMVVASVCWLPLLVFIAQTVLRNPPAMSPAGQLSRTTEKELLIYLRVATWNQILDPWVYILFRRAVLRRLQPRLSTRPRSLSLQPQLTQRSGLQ

FP receptor = FP receptor (Homo sapiens, UniProt P43088); assay: PG receptor antagonism, FP; set-up: unit not given here; settings: antagonist activity at FP receptor
FP receptor, sequence (P43088 whole entry): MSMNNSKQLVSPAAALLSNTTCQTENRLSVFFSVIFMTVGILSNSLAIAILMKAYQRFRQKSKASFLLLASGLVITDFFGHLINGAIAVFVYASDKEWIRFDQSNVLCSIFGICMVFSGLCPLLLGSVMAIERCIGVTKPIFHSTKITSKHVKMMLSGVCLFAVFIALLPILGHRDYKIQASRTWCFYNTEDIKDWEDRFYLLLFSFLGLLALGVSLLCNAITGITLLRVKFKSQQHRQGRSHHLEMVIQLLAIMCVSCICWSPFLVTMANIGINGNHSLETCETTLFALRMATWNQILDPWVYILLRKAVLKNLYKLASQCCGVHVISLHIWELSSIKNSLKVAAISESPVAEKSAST

DP receptor = target: T3, DP receptor (Homo sapiens, UniProt Q13258); assay: PG receptor antagonism, DP; set-up: unit not given here; settings: antagonist activity at DP receptor
T3 sequence (Q13258 1-359): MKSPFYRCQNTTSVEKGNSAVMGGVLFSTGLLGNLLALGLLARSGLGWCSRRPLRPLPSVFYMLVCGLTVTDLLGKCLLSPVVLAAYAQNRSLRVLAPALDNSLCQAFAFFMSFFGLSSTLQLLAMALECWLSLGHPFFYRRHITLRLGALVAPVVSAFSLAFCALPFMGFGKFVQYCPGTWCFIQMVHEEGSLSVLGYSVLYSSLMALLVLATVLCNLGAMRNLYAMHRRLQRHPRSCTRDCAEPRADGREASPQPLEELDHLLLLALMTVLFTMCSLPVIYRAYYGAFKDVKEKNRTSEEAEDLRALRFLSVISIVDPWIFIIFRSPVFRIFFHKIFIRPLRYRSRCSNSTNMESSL

EP1 receptor = target: T4, EP1 receptor (Homo sapiens, UniProt P34995); assay: PG receptor antagonism, EP1; set-up: unit not given here; settings: antagonist activity at EP1 receptor
T4 sequence (P34995 1-402): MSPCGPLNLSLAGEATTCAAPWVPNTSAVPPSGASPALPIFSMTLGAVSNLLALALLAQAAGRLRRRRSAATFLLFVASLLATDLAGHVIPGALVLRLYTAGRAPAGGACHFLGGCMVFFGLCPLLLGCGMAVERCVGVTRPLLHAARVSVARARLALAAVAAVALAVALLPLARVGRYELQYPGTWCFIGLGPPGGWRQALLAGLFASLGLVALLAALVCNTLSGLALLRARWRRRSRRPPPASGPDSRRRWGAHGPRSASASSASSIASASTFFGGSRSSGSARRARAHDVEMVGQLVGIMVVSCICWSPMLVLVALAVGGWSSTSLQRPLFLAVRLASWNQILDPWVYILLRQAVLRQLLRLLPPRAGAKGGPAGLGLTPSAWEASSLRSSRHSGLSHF

EP4 receptor = EP4 receptor (Homo sapiens, UniProt P35408); assay: PG receptor antagonism, EP4; set-up: unit not given here; settings: antagonist activity at EP4 receptor
EP4 receptor, sequence (P35408 whole entry): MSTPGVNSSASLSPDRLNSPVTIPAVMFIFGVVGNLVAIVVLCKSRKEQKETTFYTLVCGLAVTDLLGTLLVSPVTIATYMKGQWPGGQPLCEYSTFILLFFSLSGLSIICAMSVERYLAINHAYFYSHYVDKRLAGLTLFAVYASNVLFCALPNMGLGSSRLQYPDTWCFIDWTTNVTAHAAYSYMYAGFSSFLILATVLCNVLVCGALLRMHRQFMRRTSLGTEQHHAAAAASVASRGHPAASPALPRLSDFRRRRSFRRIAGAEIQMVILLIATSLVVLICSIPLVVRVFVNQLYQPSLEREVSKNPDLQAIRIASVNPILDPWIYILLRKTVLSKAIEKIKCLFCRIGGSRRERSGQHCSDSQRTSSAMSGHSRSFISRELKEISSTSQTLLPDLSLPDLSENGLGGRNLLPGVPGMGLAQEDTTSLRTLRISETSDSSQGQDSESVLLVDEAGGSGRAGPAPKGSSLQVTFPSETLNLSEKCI

IP receptor = IP receptor (Homo sapiens, UniProt P43119); assay: PG receptor antagonism, IP; set-up: unit not given here; settings: antagonist activity at IP receptor
IP receptor, sequence (P43119 whole entry): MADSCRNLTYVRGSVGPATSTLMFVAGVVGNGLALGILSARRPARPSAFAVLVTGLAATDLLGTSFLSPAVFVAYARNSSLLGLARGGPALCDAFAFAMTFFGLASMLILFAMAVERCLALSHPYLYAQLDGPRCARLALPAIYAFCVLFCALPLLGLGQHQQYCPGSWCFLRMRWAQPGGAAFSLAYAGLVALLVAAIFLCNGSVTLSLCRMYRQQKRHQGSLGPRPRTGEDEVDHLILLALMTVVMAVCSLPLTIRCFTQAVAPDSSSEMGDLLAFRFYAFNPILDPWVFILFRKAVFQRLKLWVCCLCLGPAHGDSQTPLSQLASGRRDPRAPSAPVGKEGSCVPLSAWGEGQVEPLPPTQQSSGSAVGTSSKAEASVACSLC

EP2 receptor = EP2 receptor (Homo sapiens, UniProt P43116); assay: PG receptor antagonism, EP2; settings: antagonist activity at EP2 receptor
EP2 receptor, sequence (P43116 whole entry): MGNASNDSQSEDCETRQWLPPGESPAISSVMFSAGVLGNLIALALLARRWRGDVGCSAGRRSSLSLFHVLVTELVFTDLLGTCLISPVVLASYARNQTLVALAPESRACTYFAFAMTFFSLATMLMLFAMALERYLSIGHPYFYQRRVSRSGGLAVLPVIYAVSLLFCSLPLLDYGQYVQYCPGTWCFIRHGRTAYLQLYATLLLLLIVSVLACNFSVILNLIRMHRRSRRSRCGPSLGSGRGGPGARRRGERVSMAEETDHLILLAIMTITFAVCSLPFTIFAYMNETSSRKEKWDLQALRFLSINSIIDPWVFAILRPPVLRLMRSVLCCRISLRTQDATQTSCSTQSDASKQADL

Row | SMILES | EP3 (EP3 receptor) | TP (TP receptor) | FP (FP receptor) | DP (DP receptor) | EP1 (EP1 receptor) | EP4 (EP4 receptor) | IP (IP receptor) | EP2 (EP2 receptor)
1 | O=C(O)/C=C/c1ccc(F)cc1C[C@@H]1C(c2nc(C(=O)NCCCCC3CCCCC3)co2)C2CC[C@H]1O2 (stereo partly drawn) [Example 1, (E)-3-(2R-{3R-[4-(4-Cyclohexyl-butylcarbamoyl)-oxazol-2-yl]-7-oxa-bicyclo[2.2.1]hept-2-ylmethyl}-4-fluoro-phenyl)-acrylic acid] | 5500 | <1 | 60 | 70 | 380 | 60 |  | 
2 | CS(=O)(=O)NC(=O)/C=C/c1ccc(F)cc1C[C@@H]1C(c2nc(C(=O)NCCCCC3CCCCC3)co2)C2CC[C@H]1O2 (stereo partly drawn) [Example 3, (E)-3R-[2R-[[3-[4-[[(4-cyclohexylbutyl)amino]carbonyl]-2-oxazolyl]-7-oxabicyclo[2.2.1]hept-2-yl]methyl]-4-fluoro-phenyl]-N-(methylsulfonyl)acrylic amide] | 790 | <1 | 90 | 30 | 65 | 100 |  | 
3 | O=C(/C=C/c1ccc(F)cc1C[C@@H]1C(c2nc(C(=O)NCCCCC3CCCCC3)co2)C2CC[C@H]1O2)NS(=O)(=O)CC(F)(F)F (stereo partly drawn) [Example 4, (E)-3R-[2R-[[3-[4-[[(4-cyclohexylbutyl)amino]carbonyl]-2-oxazolyl]-7-oxabicyclo[2.2.1]hept-2-yl]methyl]-4-fluoro-phenyl]-N-(2,2,2-trifluoroethanesulfonyl)acrylic amide] | 2500 | <1 | 130 | 80 | 50 | 80 |  | 5300
4 | O=C(/C=C/c1ccc(F)cc1C[C@@H]1C(c2nc(C(=O)NCCCCC3CCCCC3)co2)C2CC[C@H]1O2)NS(=O)(=O)c1ccccc1 (stereo partly drawn) [Example 6, (E)-3R-[2R-[[3-[4-[[(4-cyclohexylbutyl)amino]carbonyl]-2-oxazolyl]-7-oxabicyclo[2.2.1]hept-2-yl]methyl]-4-fluoro-phenyl]-N-(benzenesulfonyl)acrylic amide] | 290 | <1 | 100 | 60 | 60 | 380 | 1500 | 
5 | CCCCCCCCCNC(=O)c1coc(C2C3CCC(O3)C2Cc2cc(F)ccc2CCC(=O)NS(=O)(=O)C(F)(F)F)n1 (stereo not drawn) [Example 8, 2-{3-[5-Fluoro-2-(3-oxo-3-trifluoromethanesulfonylamino-propyl)-benzyl]-7-oxa-bicyclo[2.2.1]hept-2-yl}-oxazole-4-carboxylic acid nonylamide] | 700 | <1 | 50 | 10 | 40 | 30 | 3300 | 4000

Results, then the compound that gave them:

Row | EP3 (EP3 receptor) | TP (TP receptor) | FP (FP receptor) | DP (DP receptor) | EP1 (EP1 receptor) | EP4 (EP4 receptor) | IP (IP receptor) | EP2 (EP2 receptor) | SMILES
6 | 1600 | <1 | 100 | 50 | 190 | 140 | 1100 |  | CCS(=O)(=O)NC(=O)/C=C/c1ccc(F)cc1C[C@@H]1C(c2nc(C(=O)NCCCCC3CCCCC3)co2)C2CC[C@H]1O2 (stereo partly drawn) [Example 2, (E)-3R-[2R-[[3-[4-[[(4-cyclohexylbutyl)amino]carbonyl]-2-oxazolyl]-7-oxabicyclo[2.2.1]hept-2-yl]methyl]-4-fluoro-phenyl]-N-(ethylsulfonyl)acrylic amide]
7 | 1900 | <1 | 370 | 45 | 80 | 200 | 3500 |  | CCCCCCCCNC(=O)c1coc(C2C3CCC(O3)C2Cc2cc(F)ccc2/C=C/C(=O)NS(=O)(=O)CC)n1 (stereo not drawn) [Example 7]

Reference: patent publication US20140187596A1, “FATTY ACID AMIDE HYDROLASE INHIHIBITORS FOR TREATING PAIN” (ALLERGAN, INC., priority 2011, published 2014)
